Measured values as given in paper PMC8222254, “Self-assembly of an anion receptor with metal-dependent kinase inhibition and potent in vitro anti-cancer properties” (Nature Communications, 2021).
Values joined by “and” are separate entries in the source; they are usually repeats but may differ in a detail not shown here. Equal entries are not always repeated. Where two headings read alike, the source gives them in different places.

Assays:
Experiment in all cases: Chemosensitivity, 96 h continuous exposure, MTT assay;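 on SI (NPI): adult human brain neural progenitor non-cancer cells from an epilepsy surgery patient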;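 on Selectivity Index using the NPI non-cancer cell line: adult human brain neural progenitor non-cancer cells from an epilepsy surgery patient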
Assay type in all cases: cell-based, human
HCT116 p53-/- = details: for IC50 / Selectivity indices relative to ARPE-19, Ratio + anion:no anion / Selectivity indices relative to MCF10A, Ratio + anion:no anion: HCT116 p53-/-; for Selectivity index (ARPE19): IC50 ARPE-19 / IC50 HCT116 p53-/-; for Selectivity index (MCF10A): IC50 MCF10A / IC50 HCT116 p53-/-; for Relative potency (+ anion to no anion), Ratio + anion:no anion: ratio of IC50, HCT116 p53-/-; for Selectivity indices relative to ARPE-19, Ratio + anion:no anion: ratio of SI (ARPE-19); for Selectivity indices relative to MCF10A, Ratio + anion:no anion: ratio of SI (MCF 10A); for SI (ARPE19): mean IC50 ARPE-19 / mean IC50 HCT116 p53-/-; for SI (MCF10A): mean IC50 MCF10A / mean IC50 HCT116 p53-/-
Summary of the method: (§1)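 Growth inhibition is measured by MTT after cells are dosed for 96 h without washout. The 50% growth-reduction concentration is then interpolated from the curves.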

HT-29 = details: for Selectivity index (ARPE19): IC50 ARPE-19 / IC50 HT29; for Selectivity index (MCF10A): IC50 MCF10A / IC50 HT29; for Relative potency (+ anion to no anion), Ratio + anion:no anion: ratio of IC50, HT29; for Selectivity indices relative to ARPE-19, Ratio + anion:no anion: ratio of SI (ARPE-19); for Selectivity indices relative to MCF10A, Ratio + anion:no anion: ratio of SI (MCF 10A)
Summary of the method: as §1

MiaPaCa2 = details: for Selectivity index (ARPE19): IC50 ARPE-19 / IC50 MiaPaCa2; for Selectivity index (MCF10A): IC50 MCF10A / IC50 MiaPaCa2; for Relative potency (+ anion to no anion), Ratio + anion:no anion: ratio of IC50, MiaPaCa2; for Selectivity indices relative to ARPE-19, Ratio + anion:no anion: ratio of SI (ARPE-19); for Selectivity indices relative to MCF10A, Ratio + anion:no anion: ratio of SI (MCF 10A)
Summary of the method: as §1

PSN1 = details: for Selectivity index (ARPE19): IC50 ARPE-19 / IC50 PSN1; for Selectivity index (MCF10A): IC50 MCF10A / IC50 PSN1; for Relative potency (+ anion to no anion), Ratio + anion:no anion: ratio of IC50, PSN1; for Selectivity indices relative to ARPE-19, Ratio + anion:no anion: ratio of SI (ARPE-19); for Selectivity indices relative to MCF10A, Ratio + anion:no anion: ratio of SI (MCF 10A)
Summary of the method: as §1

[1] = mean of replicates, read-out: Mean IC50
[2] = single replicate, read-out: IC50 values for each replicate
[3] = HT29, mean of replicates, read-out: Mean IC50
[4] = HT29, read-out: Mean IC50 values
[5] = MiaPaCa2, mean of replicates, read-out: Mean IC50
[6] = MiaPaCa2, read-out: Mean IC50 values
[7] = MiaPaCa2, single replicate, read-out: IC50 values for each replicate
[8] = PSN1, mean of replicates, read-out: Mean IC50
[9] = PSN1, read-out: Mean IC50 values

O=S(=O)(O)O.[Zn+2].[Zn+2].[Zn+2].c1ccc(-c2csc(NCCN(CCNc3nc(-c4ccccn4)cs3)CCNc3nc(-c4ccccn4)cs3)n2)nc1.c1ccc(-c2csc(NCCN(CCNc3nc(-c4ccccn4)cs3)CCNc3nc(-c4ccccn4)cs3)n2)nc1 [[L2Zn3(SO4)]4+] was tested, and the IC50 (HCT116 p53-/-; [1]) was 61 nM, the IC50 (HCT116 p53-/-; read-out: Mean IC50 values) was 61 nM and the IC50 (HCT116 p53-/-; [2]) was 59 nM and 64 nM and 61 nM. For the same compound, the “Selectivity index (ARPE19)” value (HCT116 p53-/-) was 2774.92, the “Selectivity index (MCF10A)” value (HCT116 p53-/-) was 249.64 and the “Relative potency (+ anion to no anion), Ratio + anion:no anion” value (“Relative potency … Ratio + anion:no anion” below) (HCT116 p53-/-) was 0.85. The “Selectivity indices relative to ARPE-19, Ratio + anion:no anion” value (HCT116 p53-/-) was 1.271, the “Selectivity indices relative to MCF10A, Ratio + anion:no anion” value (HCT116 p53-/-) was 0.111 and the IC50 (HT-29; [3]) was 238 nM. The IC50 (HT-29; [4]) was 238 nM, the IC50 (HT-29; HT-29, single replicate, read-out: IC50 values for each replicate) was 70 nM and 166 nM and 210 nM and 243 nM and 499 nM and the “Selectivity index (ARPE19)” value (HT-29) was 711.22. The “Selectivity index (MCF10A)” value (HT-29) was 63.98, the “Relative potency … Ratio + anion:no anion” value (HT-29) was 1.41 and the “Selectivity indices relative to ARPE-19, Ratio + anion:no anion” value (HT-29; HT29) was 0.764. The “Selectivity indices relative to MCF10A, Ratio + anion:no anion” value (HT-29; HT29) was 0.067, the “Selectivity index (ARPE19)” value (MiaPaCa2) was 3.29 and the “Selectivity index (MCF10A)” value (MiaPaCa2) was 0.30. The IC50 (MiaPaCa2; [5]) was 51500 nM, the IC50 (MiaPaCa2; [6]) was 51500 nM and the IC50 (MiaPaCa2; [7]) was 52600 nM and 36700 nM and 60800 nM and 55800 nM. The “Relative potency … Ratio + anion:no anion” value (MiaPaCa2) was 0.87, the “Selectivity indices relative to ARPE-19, Ratio + anion:no anion” value (MiaPaCa2; MiaPaCa2) was 1.236 and the “Selectivity indices relative to MCF10A, Ratio + anion:no anion” value (MiaPaCa2; MiaPaCa2) was 0.108. For the same compound, the “Selectivity index (ARPE19)” value (PSN1) was 748.98, the “Selectivity index (MCF10A)” value (PSN1) was 67.38 and the IC50 (PSN1; [8]) was 226 nM. For the same compound, the IC50 (PSN1; [9]) was 226 nM, the IC50 (PSN1; PSN1, single replicate, read-out: IC50 values for each replicate) was 217 nM and 199 nM and 261 nM and the “activity relative to [L2Zn3(PO4)]3+ or [L2Zn3]6+” value (PSN1; PSN1 cell line, anion pre-encapsulated) was “significantly more active”. For the same compound, the “Relative potency … Ratio + anion:no anion” value (PSN1) was 0.05, the “Selectivity indices relative to ARPE-19, Ratio + anion:no anion” value (PSN1; PSN1) was 21.164 and the “Selectivity indices relative to MCF10A, Ratio + anion:no anion” value (PSN1; PSN1) was 1.852.

CC(=O)[O-].CC(=O)[O-].CC(=O)[O-].CC(=O)[O-].CC(=O)[O-].CC(=O)[O-].[Zn+2].[Zn+2].[Zn+2].c1ccc(-c2csc(NCCN(CCNc3nc(-c4ccccn4)cs3)CCNc3nc(-c4ccccn4)cs3)n2)nc1.c1ccc(-c2csc(NCCN(CCNc3nc(-c4ccccn4)cs3)CCNc3nc(-c4ccccn4)cs3)n2)nc1 [[L2Zn3]6+] was tested, and the IC50 (HCT116 p53-/-; 96 h, MTT, individual run, read-out: IC50 values for each replicate) was 61 nM and 91 nM and 64 nM, the IC50 (HCT116 p53-/-; 96 h, MTT, mean of at least 3 independent experiments, read-out: Mean IC50) was 72 nM and the IC50 (HCT116 p53-/-; 96 h, MTT, read-out: IC50) was 70 ± 13 nM. For the same compound, the IC50 (HCT116 p53-/-; [1]) was 75 nM, the IC50 (HCT116 p53-/-; read-out: Mean IC50 values) was 72 nM and the IC50 (HCT116 p53-/-; [2]) was 79 nM and 86 nM. The “Selectivity index (ARPE19)” value (HCT116 p53-/-) was 2184.03 and 2183.99, the “Selectivity index (MCF10A)” value (HCT116 p53-/-) was 2245.00 and the “Selectivity Index using the NPI non-cancer cell line” value (HCT116 p53-/-; IC50 NP1 / IC50 HCT116 p53-/-) was 108.06. For the same compound, the “more active towards HCT116 p53-/- than HCT116 p53+/+” value (HCT116 p53-/-; based on 96h IC50 values) was ~ 6 fold, the “SI (ARPE19)” value (HCT116 p53-/-) was 2184.03 and the “SI (ARPE19)” value (HCT116 p53-/-; listed as [L2Zn3]^6+) was “over 2000”. The “SI (MCF10A)” value (HCT116 p53-/-) was 2245.00, the “SI (MCF10A)” value (HCT116 p53-/-; listed as [L2Zn3]^6+) was “over 2000” and the “SI (NPI)” value (HCT116 p53-/-; mean IC50 NP1 / mean IC50 HCT116 p53-/-) was 108.06. The “Relative potency … Ratio + anion:no anion” value (HCT116 p53-/-) was 1, the “Selectivity indices relative to ARPE-19, Ratio + anion:no anion” value (HCT116 p53-/-) was 1 and the “Selectivity indices relative to MCF10A, Ratio + anion:no anion” value (HCT116 p53-/-) was 1. For the same compound, the IC50 (HT-29; [3]) was 169 nM, the IC50 (HT-29; [4]) was 169 nM and the IC50 (HT-29; HT-29, 96 h, MTT, individual run, read-out: IC50 values for each replicate) was 83 nM and 161 nM and 235 nM and 184 nM and 182 nM. The IC50 (HT-29; HT-29, 96 h, MTT, mean of at least 3 independent experiments, read-out: Mean IC50) was 169 nM, the “Selectivity index (ARPE19)” value (HT-29) was 930.47 and the “Selectivity index (MCF10A)” value (HT-29) was 956.45. For the same compound, the “Selectivity Index using the NPI non-cancer cell line” value (HT-29; IC50 NP1 / IC50 HT29) was 46.04, the “SI (ARPE19)” value (HT-29; mean IC50 ARPE-19 / mean IC50 HT-29) was 930.47 and the “SI (MCF10A)” value (HT-29; mean IC50 MCF10A / mean IC50 HT-29) was 956.45. For the same compound, the “SI (NPI)” value (HT-29; mean IC50 NP1 / mean IC50 HT-29) was 46.04, the “Relative potency … Ratio + anion:no anion” value (HT-29) was 1 and the “Selectivity indices relative to ARPE-19, Ratio + anion:no anion” value (HT-29; HT29) was 1. The “Selectivity indices relative to MCF10A, Ratio + anion:no anion” value (HT-29; HT29) was 1, the “Selectivity index (ARPE19)” value (MiaPaCa2) was 2.66 and the “Selectivity index (MCF10A)” value (MiaPaCa2) was 2.74. The “Selectivity Index using the NPI non-cancer cell line” value (MiaPaCa2; IC50 NP1 / IC50 MiaPaCa2) was 0.13, the IC50 (MiaPaCa2; MiaPaCa2, 96 h, MTT, individual run, read-out: IC50 values for each replicate) was 11900 nM and 15000 nM and 16300 nM and the IC50 (MiaPaCa2; [5]) was 59100 nM. For the same compound, the IC50 (MiaPaCa2; [6]) was 59100 nM, the IC50 (MiaPaCa2; [7]) was 52700 nM and 64800 nM and 64500 nM and 54300 nM and the “SI (ARPE19)” value (MiaPaCa2; mean IC50 ARPE-19 / mean IC50 MiaPaCa2) was 10.90. The “SI (MCF10A)” value (MiaPaCa2; mean IC50 MCF10A / mean IC50 MiaPaCa2) was 11.21, the “SI (NPI)” value (MiaPaCa2; mean IC50 NP1 / mean IC50 MiaPaCa2) was 0.54 and the “Relative potency … Ratio + anion:no anion” value (MiaPaCa2) was 1. For the same compound, the “Selectivity indices relative to ARPE-19, Ratio + anion:no anion” value (MiaPaCa2; MiaPaCa2) was 1, the “Selectivity indices relative to MCF10A, Ratio + anion:no anion” value (MiaPaCa2; MiaPaCa2) was 1 and the “Selectivity index (ARPE19)” value (PSN1) was 35.39. The “Selectivity index (MCF10A)” value (PSN1) was 36.38, the “Selectivity Index using the NPI non-cancer cell line” value (PSN1; IC50 NP1 / IC50 PSN1) was 1.75 and the IC50 (PSN1; PSN1, 96 h, MTT, individual run, read-out: IC50 values for each replicate) was 6200 nM and 4880 nM and 2250 nM. It also gave an IC50 (PSN1; PSN1, 96 h, MTT, mean of at least 3 independent experiments, read-out: Mean IC50) of over 1000 nM, an IC50 (PSN1; [8]) of 4440 nM and an IC50 (PSN1; [9]) of 4440 nM. The “SI (ARPE19)” value (PSN1; mean IC50 ARPE-19 / mean IC50 PSN1) was 35.39, the “SI (MCF10A)” value (PSN1; mean IC50 MCF10A / mean IC50 PSN1) was 36.38 and the “SI (NPI)” value (PSN1; mean IC50 NP1 / mean IC50 PSN1) was 1.75. The “Relative potency … Ratio + anion:no anion” value (PSN1) was 1, the “Selectivity indices relative to ARPE-19, Ratio + anion:no anion” value (PSN1; PSN1) was 1 and the “Selectivity indices relative to MCF10A, Ratio + anion:no anion” value (PSN1; PSN1) was 1.
